Laboratory results published in the kinase profiling compilation of Christmann-Franck et al. (2016).
Values belong to the molecule of their own block, whether it stands above or below them.

What was measured:
GAK (human) = GAK (human) (UniProt O14976); experiment: KINOMEscan competition binding; conditions: compound 10.0 µM
TXK (human) = TXK (human) (UniProt P42681)
BRSK2 (human) = BRSK2 (human) (UniProt Q8IWQ3)
LTK (human) = LTK (human) (UniProt P29376)
PAK2 (human) = PAK2 (human) (UniProt Q13177)
PAK2 (human), sequence (Q13177 whole entry, looked up): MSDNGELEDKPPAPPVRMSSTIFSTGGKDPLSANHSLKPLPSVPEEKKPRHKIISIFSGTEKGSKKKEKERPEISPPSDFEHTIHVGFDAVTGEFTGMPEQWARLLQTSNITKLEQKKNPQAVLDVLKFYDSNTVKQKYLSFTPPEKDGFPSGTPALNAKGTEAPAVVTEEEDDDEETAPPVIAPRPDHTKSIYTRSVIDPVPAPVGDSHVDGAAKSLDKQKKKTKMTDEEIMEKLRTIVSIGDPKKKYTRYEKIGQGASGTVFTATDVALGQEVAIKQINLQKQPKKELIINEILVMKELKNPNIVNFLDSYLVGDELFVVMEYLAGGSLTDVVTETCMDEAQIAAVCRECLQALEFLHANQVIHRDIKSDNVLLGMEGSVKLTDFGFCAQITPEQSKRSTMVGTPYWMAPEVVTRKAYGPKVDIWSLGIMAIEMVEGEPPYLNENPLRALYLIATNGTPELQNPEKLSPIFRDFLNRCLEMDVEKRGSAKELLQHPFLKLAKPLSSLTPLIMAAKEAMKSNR

PRKAA1 (human) = PRKAA1 (human) (UniProt Q13131)
PRKAA1 (human), sequence (Q13131 whole entry, looked up): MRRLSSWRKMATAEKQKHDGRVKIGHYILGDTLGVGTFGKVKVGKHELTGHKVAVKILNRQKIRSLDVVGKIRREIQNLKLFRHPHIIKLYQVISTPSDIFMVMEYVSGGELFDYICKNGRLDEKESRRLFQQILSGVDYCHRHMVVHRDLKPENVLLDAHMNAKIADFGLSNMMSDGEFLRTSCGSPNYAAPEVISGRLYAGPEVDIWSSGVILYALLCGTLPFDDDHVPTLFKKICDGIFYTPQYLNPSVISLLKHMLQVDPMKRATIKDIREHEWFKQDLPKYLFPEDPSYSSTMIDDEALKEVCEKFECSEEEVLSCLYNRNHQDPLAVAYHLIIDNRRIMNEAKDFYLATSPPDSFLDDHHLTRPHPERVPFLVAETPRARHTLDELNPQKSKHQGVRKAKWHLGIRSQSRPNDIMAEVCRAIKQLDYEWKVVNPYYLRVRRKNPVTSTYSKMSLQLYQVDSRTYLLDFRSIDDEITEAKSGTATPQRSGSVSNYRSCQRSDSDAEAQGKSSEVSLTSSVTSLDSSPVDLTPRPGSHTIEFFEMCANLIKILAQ

PTK2 (human) = PTK2 (human) (UniProt Q05397)
PTK2 (human), sequence (Q05397 whole entry, looked up): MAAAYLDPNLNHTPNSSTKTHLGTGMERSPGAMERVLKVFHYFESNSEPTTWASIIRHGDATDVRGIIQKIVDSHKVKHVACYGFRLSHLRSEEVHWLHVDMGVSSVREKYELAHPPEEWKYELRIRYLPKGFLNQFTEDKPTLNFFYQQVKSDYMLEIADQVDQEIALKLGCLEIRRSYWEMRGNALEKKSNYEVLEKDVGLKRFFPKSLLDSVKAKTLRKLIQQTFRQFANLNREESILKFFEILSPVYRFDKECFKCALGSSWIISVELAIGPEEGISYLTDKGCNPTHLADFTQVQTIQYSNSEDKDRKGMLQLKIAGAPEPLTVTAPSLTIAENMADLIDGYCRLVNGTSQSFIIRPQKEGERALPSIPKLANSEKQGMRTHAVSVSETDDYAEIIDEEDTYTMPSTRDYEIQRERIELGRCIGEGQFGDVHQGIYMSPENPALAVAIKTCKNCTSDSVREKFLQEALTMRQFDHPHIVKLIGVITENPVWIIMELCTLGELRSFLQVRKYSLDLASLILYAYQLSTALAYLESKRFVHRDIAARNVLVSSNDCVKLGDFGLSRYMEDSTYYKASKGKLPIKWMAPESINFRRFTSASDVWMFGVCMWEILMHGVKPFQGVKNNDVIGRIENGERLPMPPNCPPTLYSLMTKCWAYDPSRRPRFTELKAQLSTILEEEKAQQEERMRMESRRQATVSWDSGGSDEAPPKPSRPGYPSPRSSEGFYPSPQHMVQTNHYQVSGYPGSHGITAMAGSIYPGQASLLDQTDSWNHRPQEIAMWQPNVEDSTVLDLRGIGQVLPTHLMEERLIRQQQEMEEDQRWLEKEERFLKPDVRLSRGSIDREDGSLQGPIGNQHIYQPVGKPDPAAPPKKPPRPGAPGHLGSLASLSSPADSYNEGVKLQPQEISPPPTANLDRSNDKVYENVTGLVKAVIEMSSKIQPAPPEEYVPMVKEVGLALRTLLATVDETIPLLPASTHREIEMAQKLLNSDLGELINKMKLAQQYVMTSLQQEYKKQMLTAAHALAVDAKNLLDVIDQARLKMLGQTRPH

PTK2B (human) = PTK2B (human) (UniProt Q14289)
ROS1 (human) = ROS1 (human) (UniProt P08922)
RPS6KA4 KD1 (human) = RPS6KA4 KD1 (human) (UniProt O75676)
RPS6KA4 KD1 (human), sequence (O75676 whole entry, looked up): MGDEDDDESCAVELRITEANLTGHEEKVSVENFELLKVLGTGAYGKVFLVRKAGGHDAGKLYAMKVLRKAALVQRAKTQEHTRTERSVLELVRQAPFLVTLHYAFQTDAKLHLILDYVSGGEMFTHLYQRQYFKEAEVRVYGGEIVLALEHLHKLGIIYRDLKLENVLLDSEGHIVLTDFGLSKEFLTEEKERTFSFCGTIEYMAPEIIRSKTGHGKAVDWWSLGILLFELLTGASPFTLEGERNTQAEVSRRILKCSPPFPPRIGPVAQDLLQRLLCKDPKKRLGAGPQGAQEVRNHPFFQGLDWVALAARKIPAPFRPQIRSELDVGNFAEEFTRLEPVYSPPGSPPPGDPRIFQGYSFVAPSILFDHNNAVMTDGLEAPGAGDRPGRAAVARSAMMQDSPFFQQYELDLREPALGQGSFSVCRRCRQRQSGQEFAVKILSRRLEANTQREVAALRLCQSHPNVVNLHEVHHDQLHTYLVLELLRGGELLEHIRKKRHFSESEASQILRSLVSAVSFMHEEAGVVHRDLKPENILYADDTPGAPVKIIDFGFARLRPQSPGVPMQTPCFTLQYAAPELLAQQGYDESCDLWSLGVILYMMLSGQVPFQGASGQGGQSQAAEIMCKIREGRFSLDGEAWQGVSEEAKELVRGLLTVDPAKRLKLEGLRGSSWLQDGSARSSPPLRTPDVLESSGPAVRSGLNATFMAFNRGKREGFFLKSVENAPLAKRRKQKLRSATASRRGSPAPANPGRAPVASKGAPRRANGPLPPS

RPS6KA5 KD1 (human) = RPS6KA5 KD1 (human) (UniProt O75582)
[1] = target: TYK2 JH1 catalytic (human) (UniProt P29597)

GAK (human), sequence (O14976 whole entry, looked up): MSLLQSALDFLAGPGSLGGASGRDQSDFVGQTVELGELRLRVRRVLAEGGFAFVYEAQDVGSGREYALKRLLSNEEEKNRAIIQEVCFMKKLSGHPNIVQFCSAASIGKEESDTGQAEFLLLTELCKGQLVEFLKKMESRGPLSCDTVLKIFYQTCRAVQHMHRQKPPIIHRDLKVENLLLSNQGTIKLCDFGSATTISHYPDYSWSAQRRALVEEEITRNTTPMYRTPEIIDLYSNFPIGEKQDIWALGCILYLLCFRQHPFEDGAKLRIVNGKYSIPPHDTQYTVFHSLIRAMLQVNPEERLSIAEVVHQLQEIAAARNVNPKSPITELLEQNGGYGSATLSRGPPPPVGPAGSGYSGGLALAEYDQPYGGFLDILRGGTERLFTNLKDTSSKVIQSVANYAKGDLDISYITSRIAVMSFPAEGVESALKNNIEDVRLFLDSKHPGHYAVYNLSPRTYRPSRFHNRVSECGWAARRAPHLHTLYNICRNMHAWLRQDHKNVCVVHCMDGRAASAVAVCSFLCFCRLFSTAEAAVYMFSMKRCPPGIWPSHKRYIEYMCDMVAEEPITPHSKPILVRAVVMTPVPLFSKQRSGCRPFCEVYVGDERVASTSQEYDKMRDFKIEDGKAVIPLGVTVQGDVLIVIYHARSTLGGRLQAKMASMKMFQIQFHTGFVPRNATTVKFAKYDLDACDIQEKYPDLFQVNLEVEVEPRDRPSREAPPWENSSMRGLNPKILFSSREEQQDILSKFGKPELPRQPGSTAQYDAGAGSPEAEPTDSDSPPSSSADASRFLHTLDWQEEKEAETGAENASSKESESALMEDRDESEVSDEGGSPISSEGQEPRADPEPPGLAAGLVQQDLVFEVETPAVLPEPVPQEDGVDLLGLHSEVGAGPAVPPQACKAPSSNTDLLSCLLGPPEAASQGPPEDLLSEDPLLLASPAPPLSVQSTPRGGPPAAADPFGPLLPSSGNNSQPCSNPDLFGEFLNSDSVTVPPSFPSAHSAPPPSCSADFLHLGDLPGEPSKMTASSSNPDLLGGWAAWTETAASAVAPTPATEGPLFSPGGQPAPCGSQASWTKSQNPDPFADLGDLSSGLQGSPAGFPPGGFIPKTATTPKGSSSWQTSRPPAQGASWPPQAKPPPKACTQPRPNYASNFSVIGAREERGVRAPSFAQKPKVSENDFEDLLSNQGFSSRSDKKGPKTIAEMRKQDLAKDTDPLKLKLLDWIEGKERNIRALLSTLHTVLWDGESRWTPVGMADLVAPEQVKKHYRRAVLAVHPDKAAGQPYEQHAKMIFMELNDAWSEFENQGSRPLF
LTK (human), sequence (P29376 whole entry, looked up): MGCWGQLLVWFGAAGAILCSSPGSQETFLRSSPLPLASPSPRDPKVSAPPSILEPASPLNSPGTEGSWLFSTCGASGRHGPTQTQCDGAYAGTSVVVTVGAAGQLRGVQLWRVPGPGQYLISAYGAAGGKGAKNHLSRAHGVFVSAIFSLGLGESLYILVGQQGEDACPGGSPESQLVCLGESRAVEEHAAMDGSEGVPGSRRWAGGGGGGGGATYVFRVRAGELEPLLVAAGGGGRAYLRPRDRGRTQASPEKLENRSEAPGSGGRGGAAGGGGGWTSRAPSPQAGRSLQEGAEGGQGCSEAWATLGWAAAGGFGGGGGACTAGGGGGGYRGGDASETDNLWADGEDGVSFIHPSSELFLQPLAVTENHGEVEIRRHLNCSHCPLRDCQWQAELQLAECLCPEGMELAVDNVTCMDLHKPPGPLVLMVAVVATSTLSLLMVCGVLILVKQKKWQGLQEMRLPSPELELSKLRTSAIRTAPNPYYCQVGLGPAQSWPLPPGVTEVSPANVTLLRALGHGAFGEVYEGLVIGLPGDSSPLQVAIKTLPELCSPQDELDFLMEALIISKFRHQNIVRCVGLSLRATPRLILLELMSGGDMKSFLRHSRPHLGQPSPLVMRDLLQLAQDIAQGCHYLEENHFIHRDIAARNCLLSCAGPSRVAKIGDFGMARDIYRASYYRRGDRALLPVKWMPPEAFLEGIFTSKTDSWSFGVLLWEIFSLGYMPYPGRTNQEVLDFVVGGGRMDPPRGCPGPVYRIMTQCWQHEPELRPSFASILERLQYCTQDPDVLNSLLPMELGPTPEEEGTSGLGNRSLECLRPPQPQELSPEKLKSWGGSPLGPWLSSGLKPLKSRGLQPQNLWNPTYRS

- kinase still bound, per cent of control (GAK (human)): 0%
SMILES: CN(C)c1ccc(-c2cc3ncccc3c(NCCCCN)n2)cc1

- kinase still bound, per cent of control (GAK (human)): 0%
SMILES: c1ccc(-c2n[nH]cc2-c2ccnc3ccccc23)nc1

Second part, the molecule before the results:

SMILES: Cc1ccc(C(=O)Nc2cccc(C(C)(C)C)c2)cc1-c1ccc(C(=O)NCC2CC2)cc1
- kinase still bound, per cent of control (GAK (human)): no effect (inactive)
- Kd (TXK (human)): 80 nM

SMILES: CCS(=O)(=O)Nc1ccc2c(c1)[C@H](/C(=N/c1ccc(CN3CCCCC3)cc1)c1ccccc1)C(=O)N2
- kinase still bound, per cent of control (GAK (human)): 2.7%
- Kd (BRSK2 (human)): 92 nM
- Kd (LTK (human)): 52 nM
- Kd (PAK2 (human)): 14000 nM
- Kd (PRKAA1 (human)): 19 nM
- Kd (PTK2 (human)): 33 nM
- Kd (PTK2B (human)): 10 nM
- Kd (ROS1 (human)): 77 nM
- Kd (RPS6KA4 KD1 (human)): 94 nM
- Kd (RPS6KA5 KD1 (human)): 31 nM
- Kd [1]: 75 nM

SMILES: Cc1ccc(NC(=O)c2cccc(N3CCCCC3)c2)cc1-c1ccc(C(=O)NCC2CC2)cc1
- kinase still bound, per cent of control (GAK (human)): no effect (inactive)
